The values below come from article PMC10969560, “Eye Drop with Fas-Blocking Peptide Attenuates Age-Related Macular Degeneration” (Cells, 2024).

The subject of data set [1] is NaIO3-induced retinal degeneration rabbits. Kind of data set: H&E staining, ONL to total retinal thickness, in NaIO3-induced retinal degeneration rabbits. The class given is in vivo, chinchilla rabbits. Conditions: rabbit, Day 14, N=4, Figure 4D. How it is done:
(§1) The efficacy of the treatment was evaluated through an experiment conducted by KNOTUS, a contract research organization. In brief, retinal degeneration was induced by intravenous injection of NaIO3 (60 mg/kg) in 20 chinchilla rabbits, weighing 2 kg.
(§2) The eye drop administration group received dosages of 5 mg/mL (250 μg/50 μL) per ocular instillation. For intravitreal administration, peptide solutions (5 mg/mL) were administered in increments of 40 μL per administration. A pipette was used to administer the test substance onto the central cornea of the right eye for each experimental group.
(§3) Anesthetized animals were administered the test substance via subconjunctival injection into the right eye using a 31-gauge syringe needle attached to a syringe. In the case of eye drop administration, the peptides and PBS were administered twice daily for 2 weeks, for a total of 28 administrations. For intravitreal administration, a single dose of the peptide was administered the day after the NaIO3 injection.
On the concluding day of the experiment (Day 14), the animals were anesthetized using the previously described mixture of Zoletil®50 and Rompun^TM, after which they were sacrificed. NaIO3-induced retinal degeneration eyes were then extracted, and the central cornea was punctured using an injection needle. Subsequently, the specimens were fixed in a 10% neutral buffered formalin solution. For histopathological examination, the fixed tissues were subjected to processes such as fixation, dehydration, paraffin embedding, and sectioning. H&E staining was then performed, and the proportion (%) of the thickness of the outer nuclear layer (ONL) to the overall retinal thickness was calculated using an Olympus BX-53 optical microscope (Olympus, Tokyo, Japan). Two slides were prepared per eyeball relative to the optic nerve. Measurements were taken at three points on each slide, amounting to a total of six values, which were averaged.

Data set [2] relates to NaIO3-induced retinal degeneration mice. The note with it: mouse, in vivo.
Protocol: Retinal degeneration was induced by intravenous injection of NaIO3 (30 mg/kg) in 6-week-old male BALB/c mice (N = 3 per group), weighing 18–22 g (Orient Bio, Seoul, Korea). The eye drop administration group received peptides dissolved in PBS at dosages of 10 mg/mL (50 μg/5 μL) per ocular instillation. For intravitreal administration, peptide solutions dissolved in PBS were administered into the vitreous humor at a concentration of 1 mg/mL (1 μg/1 μL) per administration.
The N-terminal of the target peptide was fluorescently tagged using Alexa Fluor™ 647 NHS Ester (Succinimidyl Ester) (Invitrogen, Carlsbad, CA, USA), following the manufacturer’s protocol. Subsequently, free dye molecules were removed through a PD-10 desalting column (GE Healthcare, Milwaukee, WI, USA). Seven days after induction with NaIO3, Alexa647-conjugated peptides were administered via eye drops. Twelve hours after the last administration, organs were harvested for experiments, and Alexa647 signals were detected on whole organs using a FOBI imaging machine ([sequence], Cheongju, Republic of Korea).
For IHC, eyes were harvested and embedded in the Tissue-Tek® OCT Compound (Sakura Finetek Europe BV, Alphen aan den Rijn, The Netherlands) to prepare cryoblocks for cryosectioning. After freezing the eyes in the Tissue-Tek® OCT Compound, the eyes were cryosectioned to a thickness of 10 μm and mounted with ProLong™ Glass Antifade Mountant with NucBlue™ Stain (Invitrogen). The anti-Fas rabbit mAb (#4233S, Cell Signaling Technology, Danvers, MA, USA) was used to capture the Fas receptor, and the Fas antibody was subsequently detected using Goat Anti-Rabbit IgG H&L (Alexa Fluor® 488) (ab150077, Abcam, Cambridge, UK). A ZEISS Axio Scan.Z1 Slide Scanner (Carl Zeiss, Oberkochen, Germany) was employed to detect NucBlue™ stained cell nuclei and the Alexa647-conjugated peptide signals.
Data set [3] deals with NaIO3-induced retinal degeneration rabbits. Kind of data set: Fundus imaging of RPE degenerated area in NaIO3-induced retinal degeneration rabbit model. The note with it: for RPE degeneration compared with mock treatment (fundus imaging): NaIO3 60 mg/kg i.v., N=4, Figure 4B; for level of RPE degeneration on day 14 compared with mock group (fundus imaging): day 14, N=4, Figure 4B. The class given is in vivo, chinchilla rabbits. How it is done: as §1, §2, §3
Before the administration of NaIO3 (Day 0) and upon concluding the experiment (Day 14), the right eyes of the rabbits were treated with a mydriatic agent (1% midriacyl eye drops). Subsequently, the rabbits were anesthetized with a mixture of Zoletil®50 (Virbac, Carros, France) and Rompun^TM (Bayer AG, Leverkusen, Germany) through intravenous injection (marginal ear vein) at a dosage of 0.1 mL/kg. Fundus imaging was conducted using a fundus camera (TRC-50IX, TOPCON, Tokyo, Japan). The retinal images were analyzed using Image J software version 1.54d (NIH, Bethesda, MD, USA) to determine the area of degeneration in the RPE, with the RPE injury area being manually selected. The total area of the retina, excluding the optic nerve region, was defined as the total area. The proportion of degenerated area was calculated as a percentage using Equation (1). Degenerated area (%) = Degenerated area/Total area(1)

Data set [4] deals with NaIO3-induced retinal degeneration mice. In words: TUNEL assay in NaIO3-induced retinal degeneration mouse model. In kind it is in vivo, BALB/c mice. Conditions: N=3, Figure 3C. How it is done:
(§4) To confirm the therapeutic effect of 6R-FBP, histological evaluation was conducted through hematoxylin and eosin (H&E) staining and the TUNEL assay. The eyes were fixed with 4% paraformaldehyde in PBS at room temperature for 20 min. After fixation, the eyes were sequentially incubated in 10%, 20%, and 30% (w/v) sucrose solution diluted in PBS for 30 min each at room temperature. Subsequently, the eyeballs were sagittally halved with a razor blade and embedded in Tissue-Tek® OCT Compound, and then frozen immediately in a liquid nitrogen chamber. Trimming was minimized to maintain controlled distances and ensure consistency, and sections were sliced at a thickness of 10 μm. Sections from the eye cryoblock were used for H&E staining and the TUNEL assay. The TUNEL assay was conducted according to the manufacturer’s protocol using the TUNEL assay kit (Abcam).

A further data set relates to Fas. Kind of data set: RT-PCR of Fas expression in NaIO3-treated ARPE-19 cells. The class given is cell-based, human. Conditions: ARPE-19, NaIO3 10 mM + peptide 700 μM, 24 h; N=3; Figure 1A. The protocol:
After 24 h of treatment with NaIO3 (10 mM) and the FBP peptide (700 μM), the cells were harvested for analysis. Total RNA from the ARPE-19 cells was extracted using the RNAiso kit (Takara, Kyoto, Japan). Total RNA was reverse-transcribed into cDNA using the High-Capacity cDNA Reverse Transcription Kit (Applied Biosystems, Waltham, MA, USA). The quantification of gene expression was performed using PowerUp™ SYBR™ Green Master Mix (Thermo Fisher Scientific, Waltham, MA, USA) on an ABI 7500 Fast Real-Time PCR system (Applied Biosystems, Waltham, MA, USA). The sequences of primer pairs used for real-time PCR are depicted in Table 2.

The subject of the next data set is cleaved caspase-3 and 8. In words: Western blot of apoptosis-related proteins in NaIO3-treated ARPE-19 cells. In kind it is cell-based, human. Conditions: ARPE-19, NaIO3-treated; Figure 1C. The protocol:
Total protein samples were extracted from ARPE-19 cells using ice-cold RIPA buffer containing a protease inhibitor cocktail. A 4× sample buffer containing Tris-(2-Carboxyethyl)phosphine (Invitrogen, Carlsbad, CA, USA) was prepared by mixing 950 µL of 4× Laemmli sample buffer (GenDEPOT) with 50 µL of Tris-(2-Carboxyethyl)phosphine (Invitrogen). Protein samples (15 μg) were diluted in the sample buffer and heated at 95 °C for 5 min. The samples were then loaded onto a 12% SDS-PAGE gel and transferred onto a PVDF transfer membrane. The blots were probed with rabbit anti-cleaved caspase-3 (1:1000, Abcam, Cambridge, UK, ab52293), anti-cleaved caspase-8 (1:1000, Abcam, ab25901) and rabbit polyclonal anti-Fas (1:1000, Abcam, ab82419). Secondary polyclonal antibodies were probed with rabbit IgG coupled to HRP (1:2000, Abcam, ab97051). Finally, the blots were developed using ECL Western blotting substrate (Promega, Madison, WI, USA).

Data set [5] concerns NaIO3-induced retinal degeneration mice. In words: H&E histology in NaIO3-induced retinal degeneration mouse model. The class given is in vivo, BALB/c mice. Conditions: NaIO3 30 mg/kg i.v., N=3, Figure 3B. The protocol:
as §4

Data set [6] has as its system NaIO3-induced ARPE-19 cells. In words: CCK-8 cell viability in NaIO3-induced ARPE-19 cells. Conditions: NaIO3 10 mM, 24 h, FBP 100, 300, 500, 700, 900 μM, three independent experiments, Figure S2. In kind it is cell-based, human. How it is done: All experiments were performed using cells within specified passages.
Figure S2. Concentration -dependent cel l viability in NaI O3-indu ced ARPE-19 cells. Cell viability under concentration-dependent conditions wa s evaluated in NaIO3-induced ARPE- 19 cells. The data are presented as the mean ± SD from three independent experiments. ***P<0.001, and ns indicates not significa nt.

YCDEHFCY [FBP]: the “proportion of thickness of ONL to total retinal thickness compared with mock group (H&E)” value in data set [1] (eye drops twice daily) and in data set [1] (single intravitreal injection) was “maintenance of the ONL” each time. In addition, the “transfer to other organs (fluorescence signal vs normal group)” value in data set [2] is “not transferred to any other organ but the eyes”. For the same sequence, the “RPE degeneration compared with mock treatment (fundus imaging)” value is given as “significant reduction in RPE degeneration” in data set [3] (eye drops 5 mg/mL (250 μg/50 μL) twice daily for 14 days) and “significant reduction in RPE degeneration” in data set [3] (single intravitreal injection 5 mg/mL, 40 μL). Also, the “level of RPE degeneration on day 14 compared with mock group (fundus imaging)” value in data set [3] (eye drops twice daily for 14 days) and in data set [3] (single intravitreal injection) was “significantly lower” each time. Further, the “apoptosis levels in retina (TUNEL)” value was “higher apoptosis levels” in data set [4] (eye drop application) and “lower apoptosis levels” in data set [4] (intravitreal injection). Moreover, the “expression of Fas (RT-PCR)” value in the data set on Fas is reported as “reduced”. Besides, the “levels of cleaved caspase-3 and 8 (Western blot)” value in the data set with cleaved caspase-3 and 8 is given as “significant decrease”. Also, the “therapeutic effect on integrity of the retinal layer (H&E staining)” value was “no therapeutic effect” in data set [5] (eye drop application, peptides 10 mg/mL (50 μg/5 μL)) and “therapeutic effects” in data set [5] (intravitreal injection 1 mg/mL (1 μg/1 μL)). In data set [6], the “FBP concentration at which viability of NaIO3-induced ARPE-19 cells was maximum” value is “exceeding 700 μM”.
